pIC50: −log10 of the molar value.
Columns and labels:
[1] = Liver microsome stability; format: in vitro ADME, rat; settings: amount of substrate remaining; compound 1 μM, 30 minutes, 37° C., NADPH
Method in brief: (§1)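 Human, dog, rat and mouse liver microsomes (0.25 mg/mL) with 1 μM compound in 0.1 M phosphate buffer pH 7.4, preincubated 5 min at 37° C, then incubated 30 min at 37° C with NADPH-generating system. Reaction stopped with acetonitrile containing internal standard; remaining parent quantified by LC-MS/MS.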

CYP2C9 = molecular target: T1, CYP2C9 (Homo sapiens, UniProt P11712); test: Inhibitory effect on CYP coenzyme activity, human liver microsomes; format: in vitro ADME; settings: compound 10 μM; human liver microsomes 0.25 mg/mL; substrate diclofenac; 15 minutes
T1 construct: human liver microsomes (0.25 mg/mL); from tissue; host or cells: human liver microsomes
T1 sequence (P11712 whole entry): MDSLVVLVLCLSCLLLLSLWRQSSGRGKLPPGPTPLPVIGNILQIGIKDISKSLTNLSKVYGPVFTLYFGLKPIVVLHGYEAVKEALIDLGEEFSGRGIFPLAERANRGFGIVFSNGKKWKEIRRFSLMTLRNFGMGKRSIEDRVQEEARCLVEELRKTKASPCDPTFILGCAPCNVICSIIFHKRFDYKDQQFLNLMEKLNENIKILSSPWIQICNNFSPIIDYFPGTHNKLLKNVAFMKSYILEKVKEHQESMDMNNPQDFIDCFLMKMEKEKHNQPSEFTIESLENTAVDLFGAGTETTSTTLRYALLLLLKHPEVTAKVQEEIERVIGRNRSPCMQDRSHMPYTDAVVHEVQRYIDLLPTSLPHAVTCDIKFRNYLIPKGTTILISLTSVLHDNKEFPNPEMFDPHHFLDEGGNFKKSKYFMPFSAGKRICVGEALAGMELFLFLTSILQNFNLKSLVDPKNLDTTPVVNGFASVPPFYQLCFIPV
Method in brief: (§2)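 Human liver microsomes (0.25 mg/mL, pH 7.4) were incubated with a substrate cocktail (10 μM diclofenac, 100 μM S-mephenytoin, 5 μM dextromethorphan, 2.5 μM midazolam) and compound at 0 or 10 μM. After 5 min preincubation at 37 °C, NADPH was added for 15 min. Metabolites were quantified by LC-MS/MS MRM.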

CYP3A4 = molecular target: T2, CYP3A4 (Homo sapiens, UniProt P08684); test: as above; format: in vitro ADME; settings: compound 10 μM; human liver microsomes 0.25 mg/mL; substrate midazolam; 15 minutes
T2 construct: human liver microsomes (0.25 mg/mL); from tissue; host or cells: human liver microsomes
T2 sequence (P08684 whole entry): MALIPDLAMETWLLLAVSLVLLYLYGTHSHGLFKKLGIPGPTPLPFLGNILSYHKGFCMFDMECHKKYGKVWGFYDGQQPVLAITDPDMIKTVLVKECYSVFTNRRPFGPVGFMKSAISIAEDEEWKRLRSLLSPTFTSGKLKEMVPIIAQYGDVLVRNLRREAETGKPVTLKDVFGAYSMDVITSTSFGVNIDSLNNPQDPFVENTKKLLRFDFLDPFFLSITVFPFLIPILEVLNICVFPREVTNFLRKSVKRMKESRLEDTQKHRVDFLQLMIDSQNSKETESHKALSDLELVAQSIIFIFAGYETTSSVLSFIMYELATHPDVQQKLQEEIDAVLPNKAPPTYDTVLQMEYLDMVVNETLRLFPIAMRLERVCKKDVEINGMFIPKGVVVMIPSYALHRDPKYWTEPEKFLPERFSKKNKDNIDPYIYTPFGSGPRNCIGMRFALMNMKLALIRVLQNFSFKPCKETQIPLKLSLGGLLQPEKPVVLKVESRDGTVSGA
Method in brief: as §2

CYP2C19 = molecular target: T3, CYP2C19 (Homo sapiens, UniProt P33261); test: as above; format: in vitro ADME; settings: compound 10 μM; human liver microsomes 0.25 mg/mL; substrate S-mephenytoin; 15 minutes
T3 construct: human liver microsomes (0.25 mg/mL); from tissue; host or cells: human liver microsomes
T3 sequence (P33261 whole entry): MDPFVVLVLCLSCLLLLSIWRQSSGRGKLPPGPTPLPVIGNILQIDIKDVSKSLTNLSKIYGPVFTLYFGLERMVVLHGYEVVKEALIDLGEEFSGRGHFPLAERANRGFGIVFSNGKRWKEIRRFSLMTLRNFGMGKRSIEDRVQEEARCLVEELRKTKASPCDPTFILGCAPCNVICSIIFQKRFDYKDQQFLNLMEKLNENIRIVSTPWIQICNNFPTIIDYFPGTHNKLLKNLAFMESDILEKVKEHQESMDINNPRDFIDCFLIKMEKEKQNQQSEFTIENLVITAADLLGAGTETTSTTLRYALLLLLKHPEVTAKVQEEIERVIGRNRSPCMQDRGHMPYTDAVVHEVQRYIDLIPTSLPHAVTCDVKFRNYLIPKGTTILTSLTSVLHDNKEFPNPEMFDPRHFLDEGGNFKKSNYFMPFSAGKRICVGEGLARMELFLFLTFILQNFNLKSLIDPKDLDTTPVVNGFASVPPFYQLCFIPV
Method in brief: as §2

CYP2D6 = molecular target: T4, CYP2D6 (Homo sapiens, UniProt P10635); test: as above; format: in vitro ADME; settings: compound 10 μM; human liver microsomes 0.25 mg/mL; substrate dextromethorphan; 15 minutes
T4 construct: human liver microsomes (0.25 mg/mL); from tissue; host or cells: human liver microsomes
T4 sequence (P10635 whole entry): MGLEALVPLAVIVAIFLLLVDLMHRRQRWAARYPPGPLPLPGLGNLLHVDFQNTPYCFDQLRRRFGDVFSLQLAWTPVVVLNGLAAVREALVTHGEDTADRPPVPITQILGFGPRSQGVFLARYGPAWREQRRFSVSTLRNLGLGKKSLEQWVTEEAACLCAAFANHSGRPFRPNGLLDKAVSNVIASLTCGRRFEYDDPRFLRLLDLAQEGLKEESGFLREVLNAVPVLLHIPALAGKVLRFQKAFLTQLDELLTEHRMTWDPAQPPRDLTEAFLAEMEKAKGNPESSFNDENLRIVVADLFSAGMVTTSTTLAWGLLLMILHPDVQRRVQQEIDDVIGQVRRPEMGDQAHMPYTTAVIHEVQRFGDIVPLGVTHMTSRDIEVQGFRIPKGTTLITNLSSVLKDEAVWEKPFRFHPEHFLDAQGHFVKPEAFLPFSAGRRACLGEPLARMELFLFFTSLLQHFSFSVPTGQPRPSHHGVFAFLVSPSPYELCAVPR
Method in brief: as §2

CYP1A2 = molecular target: T5, CYP1A2 (Homo sapiens, UniProt P05177); test: as above; format: in vitro ADME; settings: compound 10 μM; human liver microsomes 0.25 mg/mL; substrate phenacetin; 15 minutes
T5 construct: human liver microsomes (0.25 mg/mL); from tissue; host or cells: human liver microsomes
T5 sequence (P05177 1-516): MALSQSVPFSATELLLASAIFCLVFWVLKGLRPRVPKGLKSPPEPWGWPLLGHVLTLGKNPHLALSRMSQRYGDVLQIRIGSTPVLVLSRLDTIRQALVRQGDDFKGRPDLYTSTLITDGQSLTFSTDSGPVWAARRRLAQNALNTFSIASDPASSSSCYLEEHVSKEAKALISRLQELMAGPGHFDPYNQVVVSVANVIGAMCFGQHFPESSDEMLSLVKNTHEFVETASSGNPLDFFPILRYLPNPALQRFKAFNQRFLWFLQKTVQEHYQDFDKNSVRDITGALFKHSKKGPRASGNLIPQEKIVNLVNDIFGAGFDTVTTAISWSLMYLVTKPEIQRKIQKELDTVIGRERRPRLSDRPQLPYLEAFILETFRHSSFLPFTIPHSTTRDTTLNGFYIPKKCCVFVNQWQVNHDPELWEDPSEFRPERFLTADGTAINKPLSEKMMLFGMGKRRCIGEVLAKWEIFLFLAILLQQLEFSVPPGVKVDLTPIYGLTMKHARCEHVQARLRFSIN
Method in brief: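 Activity remaining with 10 μM test compound was determined from MRM-quantified metabolite formation. The reaction used human microsomal protein (0.25 mg/mL) in pH 7.4 buffer with a mixed five-substrate cocktail, a 5-min 37 °C preincubation, and 15 min of NADPH-supported turnover.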

[2] = Liver microsome stability; format: in vitro ADME, human; settings: amount of substrate remaining; compound 1 μM, 30 minutes, 37° C., NADPH
Method in brief: as §1

[3] = Liver microsome stability; format: in vitro ADME, mouse; settings: amount of substrate remaining; compound 1 μM, 30 minutes, 37° C., NADPH
Method in brief: as §1

[4] = Liver microsome stability; format: in vitro ADME, dog; settings: amount of substrate remaining; compound 1 μM, 30 minutes, 37° C., NADPH
Method: The stability of liver microsomes due to the compounds prepared according to Examples 1 to 175 was confirmed. Specifically, four types of liver microsomes (human, dog, rat, and mouse, each 0.25 mg/mL), a 0.1 M phosphate buffer solution (pH 7.4), and each of the compounds at a concentration of 1 μM were mixed and pre-cultured at 37° C. for 5 minutes and further cultured at 37° C. for 30 minutes together with an NADPH generation system solution added thereto. Thereafter, the reaction was terminated by adding an acetonitrile solution containing an internal standard material (chloropropamide) and centrifuged for 5 minutes (14,000 rpm, 4° C.), and then a supernatant was injected into an LC-MS/MS system for analysis of substrate drugs to thereby evaluate metabolic stability due to 8 types of compounds.
The amount of the substrate remaining after the reaction was analyzed using the Shimadzu Nexera XR system and TSQ Vantage (Thermo). In an HPLC column, Kinetex XB-C18 (2.1 mm×100 mm, particle size of 2.6 μm; Phenomenex, USA) was used, and mobile phases were (A) distilled water containing 0.1% formic acid and (B) acetonitrile containing 0.1% formic acid. Analyst software (version 1.6.3) and Xcalibur (version 1.6.1) were used for data analysis.

Tau-BiFC cells = test: Cell viability (cytotoxicity) in tau-BiFC cells, count of stained nuclei; format: cell-based; settings: compound 10 μM; Forskolin-only group = 100% cell viability
Method in brief: (§3)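 Tau-BiFC cells were exposed for 48 h to compound (1, 3, 10 μM for screening; 0.03–30 μM for dose-response) plus 30 μM Forskolin to induce aggregation. BiFC fluorescence was normalised to Forskolin-only minus untreated controls, with IC50 from nonlinear regression. Viability was Hoechst-stained nuclei counts relative to Forskolin-only wells.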

tau protein = molecular target: T6, tau protein (Homo sapiens, UniProt P10636); test: Tau-BiFC cell model: inhibition of tau protein aggregation; format: cell-based; settings: for remaining activity at 10 µM: 48 h, compound 10 μM, BiFC fluorescence, Forskolin-only group = 100% tau protein-aggregated state, read-out: Response (% @10 μM); for pIC50: Tau BiFC in cells, with Forskolin 30 μM, 48 hours
T6 construct: fused on or other part: Split fluorescent-protein halves for BiFC are fused to tau; In the published tau-BiFC line these are Venus VN173 and VC155
T6 sequence (P10636 2-441 isoform P10636-8 limits assumed): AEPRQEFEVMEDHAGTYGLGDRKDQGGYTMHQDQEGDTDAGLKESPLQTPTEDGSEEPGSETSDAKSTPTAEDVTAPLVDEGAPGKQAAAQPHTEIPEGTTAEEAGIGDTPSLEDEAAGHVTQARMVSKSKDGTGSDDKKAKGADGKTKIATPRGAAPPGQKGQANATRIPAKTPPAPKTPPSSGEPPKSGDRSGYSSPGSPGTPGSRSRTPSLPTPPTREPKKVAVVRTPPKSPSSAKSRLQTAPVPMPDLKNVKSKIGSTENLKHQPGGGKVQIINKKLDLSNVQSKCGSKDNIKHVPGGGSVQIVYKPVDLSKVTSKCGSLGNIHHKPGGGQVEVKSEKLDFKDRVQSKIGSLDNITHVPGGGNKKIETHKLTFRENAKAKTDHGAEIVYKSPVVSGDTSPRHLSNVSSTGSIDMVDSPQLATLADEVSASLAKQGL
Method in brief: as §3

| Compound | Rat (%) [1] | CYP2C9 (CYP2C9) | CYP3A4 (CYP3A4) | CYP2C19 (CYP2C19) | CYP2D6 (CYP2D6) | CYP1A2 (CYP1A2) | Human (%) [2] | Mouse (%) [3] | Dog (%) [4] | Cell viability (% @10 μM) (Tau-BiFC cells) | remaining activity at 10 µM (tau protein) | pIC50 (tau protein) |
| --- | --- | --- | --- | --- | --- | --- | --- | --- | --- | --- | --- | --- |
| Cc1ccc(NC(=O)c2ccc(NN=C(C#N)C#N)cn2)cn1 [Compound 38, (6-(6-methylpyridin-3-ylcarbamoyl)pyridin-3-yl)carbonohydrazonoyl dicyanide] | >100% | 49.1 | 92.4 | 83.0 | >100 | 92.5 | 99.1% | 96.4% | 98.8% | 110.6% | 0% | 6.00 |
| Cc1cnc(NC(=O)c2ccc(NN=C(C#N)C#N)cc2)cn1 [Compound 45, (4-(5-methylpyrazin-2-ylcarbamoyl)phenyl)carbonohydrazonoyl dicyanide] | >100% | 80.8 | 96.7 | 83.4 | >100 | 95.5 | 96.8% | >100% | >100% | 140.5% | 0% | 5.93 |
| Cc1cncc(NC(=O)c2ccc(NN=C(C#N)C#N)cc2)n1 [Compound 46, (4-(6-methylpyrazin-2-ylcarbamoyl)phenyl)carbonohydrazonoyl dicyanide] | 86.3% | 70.4 | 85.5 | 83.1 | >100 | 97.8 | >100% | >100% | >100% | 155% | 0% | 6.07 |

— US12649723B2, “Carbonohydrazonoyl dicyanide compounds comprising 2 or more aryl or heteroaryl connected via linker and use thereof” (KOREA INSTITUTE OF SCIENCE AND TECHNOLOGY, priority 2020, dated 2026)
